{"source": "patent US8791269B2", "about": "“Complex of amorphous tomoxiprole and cyclodextrin with fast dissolution rate and process for the preparation thereof” (Fondazione Istituto Insubrico di Ricerca per la Vita, priority 2011, dated 2014)", "key": {"[1]": {"test": "Dissolution rate in buffer solution HCl-KCl pH 1.5", "type": "physicochemical", "settings": "for Substance dissolved (concentration of tomoxiprole): buffer HCl-KCl pH 1.5", "method": "The dissolution rate of the complex tomoxiprole-2-hydroxypropyl-beta-cyclodextrin obtained in Example 1 is determined by the following method.\nIn a flask provided with magnetic mixer 600 mg of tomoxiprole-2-hydroxypropyl-beta-cyclodextrin complex (corresponding to 100 mg of tomoxiprole) are added to 10 ml of a buffer solution HCl—KCl pH 1.5. Samples of the suspension are collected at intervals of time, clarified by centrifugation and the tomoxiprole concentration in the clear supernatant is determined by UV absorption at 328 nm.\nThe method was the same of that described above, with the exception that 100 mg of tomoxiprole were added instead of 600 mg of complex tomoxiprole/HPBCD"}, "[2]": {"test": "Surface wettability (water contact angle)", "type": "physicochemical", "settings": "at any pH"}, "[3]": {"settings": "orally administered; cited from earlier work"}, "in vivo": {"test": "in vivo", "settings": "rat, po, 5 mg/kg", "method": "To assess whether the faster dissolution rate observed for the complex actually corresponds to a faster in vivo absorption, the pharmacokinetic behaviour of tomoxiprole (TMX) and tomoxiprole-2-hydroxypropyl-beta-cyclodextrin complex (TMX/HPBCD) in rats have been compared.\nExperimental design: Two groups of four rats each have been used. To the rats of each group was orally given either a dose of 5 mg/Kg of tomoxiprole or a dose of complex tomoxiprole-2-hydroxypropyl-beta-ciclodestrin corresponding to 5 mg/Kg of active substance. […] Samples of blood were collected at 0.3, 0.6, 1, 1.5, 2 and 6 hours, and plasma separated by centrifugation. Sample processing and HPLC analyses were performed as previously described (A. Bernareggi et al. J. liquid chromatography 1984, 7, 2093-2101). The pharmacokinetic parameters calculated from the plasma levels of tomoxiprole observed with the two formulations are reported in the following Table 2"}, "[4]": {"settings": "active doses; cited from earlier work"}}, "data": [{"molecule": "COc1ccc(-c2nc3c4ccccc4ccc3n2C(C)C)cc1", "note": "[Tomoxiprole crystals, 2-(4-methoxyphenyl)-3-(1-methylethyl)-3H-naphth[1,2-d] imidazole]", "values": [{"measurement": "Time at which the saturation concentration is reached", "setting": "[1]; buffer pH 1.5", "value": "over 8 min"}, {"measurement": "Substance dissolved (concentration of tomoxiprole)", "setting": "[1]; time 0.5 min", "value": 1, "unit": "mg/mL"}, {"measurement": "Substance dissolved (concentration of tomoxiprole)", "setting": "[1]; time 2 min", "value": 3, "unit": "mg/mL"}, {"measurement": "Substance dissolved (concentration of tomoxiprole)", "setting": "[1]; time 4 min", "value": 4, "unit": "mg/mL"}, {"measurement": "Substance dissolved (concentration of tomoxiprole)", "setting": "[1]; time 8 min", "value": 4.9, "unit": "mg/mL"}, {"measurement": "Substance dissolved (concentration of tomoxiprole)", "setting": "[1]; time 12 min", "value": 5.2, "unit": "mg/mL"}, {"measurement": "Water contact angle", "setting": "[2]", "value": 81, "unit": "°"}, {"measurement": "Time of maximum concentration in the blood after administration", "setting": "[3]", "value": "over one hour"}, {"measurement": "AUC", "setting": "in vivo", "value": 46, "unit": "ng·h/mL"}, {"measurement": "AUC(0-t)", "setting": "in vivo", "value": 1170, "unit": "ng·h/mL"}, {"measurement": "Cmax", "setting": "in vivo", "value": 220, "unit": "ng/mL"}, {"measurement": "Tmax", "setting": "in vivo", "value": 1.5, "unit": "h"}, {"measurement": "Ulcerogenic activity", "setting": "[4]", "value": "devoid of ulcerogenic activity"}]}]}
